Experimental data published in PubChem BioAssay AID2060623 (Molecular Pharmacology Branch, DTP, NCI, 2025).

System: 227483-062-R1-J1-PDC complex spheroids with HUVEC/MSC, viability
Test: Anticancer human tumor 227483-062-R1-J1-PDC patient-derived pancreatic carcinoma cell line growth inhibition [CLK]
Conditions: for IC50: curve of first compound; for viability, T/C: stronger effect = lower value
From the text: A high-throughput screen of multi-cell type tumor spheroids was designed to identify active combinations of […] and targeted small molecules. Complex spheroids include a stromal component modeled by human endothelial cells (HUVEC) and fibroblasts modeled by human mesenchymal stem cells (MSCs). The concentration ranges selected for each drug and investigational agent were based upon clinically achievable concentrations if the clinical Cmax of the agent was known.
Compounds. The drugs and investigational agents: cirtuvivint (SM08502; NSC835563), CC-671 (NSC850746), vemurafenib (NSC761431), tapotoclax (NSC804041), sotorasib (NSC818433), adagrasib (NSC831453), MRTX-1133 (NSC836407), BAY2416964 (NSC825713), copanlisib (NSC816437), inavolisib (NSC800729), abemaciclib (NSC768073), osimertinib (NSC779217), entinostat (NSC756642), eltanexor (KPT-8602, NSC794443), venetoclax (NSC766270), ceralasertib (NSC777638), bortezomib (NSC756655), olaparib (NSC753686), talazoparib (NSC767125), alisertib (NSC759677), peposertib (NSC802822), gemcitabine (NSC613327), 5-fluorouracil (NSC19893), SN-38 (NSC673596), oxaliplatin (NSC266046), paclitaxel (NSC125973), and doxorubicin (NSC123127), were obtained from the National Cancer Institute (NCI) Developmental Therapeutics Program Chemical Repository. The FDA-approved anticancer drug set is available from the Developmental Therapeutics Program at https://dtp.cancer.gov/organization/dscb/obtaining/available plates.htm. […] The stock solutions were prepared in dimethyl sulfoxide (DMSO, Sigma-Aldrich, St. Louis, MO, cat. D2650), except for the platinum complexes which were prepared in saline (Quality Biological, Gaithersburg, MD, cat. 114-055-101), at 800-fold the tested concentration and stored at -70 degrees C prior to their use. All drugs and investigational agents were tested over a range starting from a high concentration at or near the clinical Cmax and decreasing in half-log increments. If the clinical Cmax for an agent had not been determined, the highest concentration tested was 10 microM.
Cell Culture. All cells were maintained in an incubator at 37 degrees C and 5% CO2 with 95% humidity. The PDC lines were cultured according to standard operating procedures established by the NCI PDMR. Briefly, all PDCs were thawed and cultured in Matrigel-coated flasks prepared with a working solution of 1X Ham's F-12 nutrient mix, without supplementation (Invitrogen, Waltham, MA, cat. 11765054), 100 U/mL penicillin-streptomycin (Invitrogen, cat. 15140122), and 2.5% Matrigel (Corning Inc., Corning, NY, cat. 354248) for the first three passages. The 947758-054-R-J2-PDC line was cultured in 6B/Colon 1A media, which includes advanced DMEM/F-12 (Thermo Fisher Scientific, cat. 12634028), 10 mM HEPES (Thermo Fisher Scientific, cat. 15630080), 1X GlutaMAX supplement (Thermo Fisher Scientific, cat. 35050061), 0.1 mg/mL primocin (InvivoGen, cat. ant-pm-2), 10% defined fetal bovine serum, heat inactivated (HyClone Laboratories Inc., cat. SH30070.03HI), 1.25 mM N-Acetyl-L-cysteine (Sigma-Aldrich, cat. A9165), 10 mM nicotinamide (Sigma-Aldrich, cat. N0636), 1X B-27 supplement (Thermo Fisher Scientific, cat. 17504044), 1X N-2 supplement (Thermo Fisher Scientific, cat. 17502048), and 10 microM Y-27632 dihydrochloride (Tocris Bioscience, cat. 1254). The 876862-298-R-J1-PDC was cultured in 6E media, which includes all 6B/Colon 1A media components plus 50% L-WRN conditioned media (ATCC, cat. CRL-3276), 50 ng/mL recombinant human EGF recombinant protein (hEGF; Thermo Fisher Scientific, cat. PHG0311), 10 ng/mL recombinant human fibroblast growth factor 10 (hGFG-10; PeproTech, cat. 100-26), 1 ng/mL recombinant human fibroblast growth factor 2 (hFGF-2; PeproTech, cat. 100-18B), and 1 µM prostaglandin E2 (PGE2; Tocris, cat. 2296). The 227483-062-R1-J1-PDC line was cultured in Panc media, containing all 6E components except hFGF-2, with the addition of 500 nM SB-431542 (Selleckchem, cat. S1067) and 10 nM gastrin (Tocris, cat. 3006). […]

[1] = second compound 0.0316 µM, first compound 0.0316 µM
[2] = second compound 0.0316 µM, first compound 0.1 µM
[3] = second compound 0.0316 µM, first compound 0.316 µM
[4] = second compound 0.0316 µM, first compound 1 µM
[5] = second compound 0.0316 µM, first compound 3.16 µM
[6] = second compound 0.0316 µM, first compound 10 µM
[7] = second compound 0.1 µM, first compound 0.0316 µM
[8] = second compound 0.1 µM, first compound 0.1 µM
[9] = second compound 0.1 µM, first compound 0.316 µM
[10] = second compound 0.1 µM, first compound 1 µM
[11] = second compound 0.1 µM, first compound 3.16 µM
[12] = second compound 0.1 µM, first compound 10 µM
[13] = second compound 0.316 µM, first compound 0.0316 µM
[14] = second compound 0.316 µM, first compound 0.1 µM
[15] = second compound 0.316 µM, first compound 0.316 µM
[16] = second compound 0.316 µM, first compound 1 µM
[17] = second compound 0.316 µM, first compound 3.16 µM
[18] = second compound 0.316 µM, first compound 10 µM
[19] = second compound 1 µM, first compound 0.0316 µM
[20] = second compound 1 µM, first compound 0.1 µM
[21] = second compound 1 µM, first compound 0.316 µM
[22] = second compound 1 µM, first compound 1 µM
[23] = second compound 1 µM, first compound 3.16 µM
[24] = second compound 1 µM, first compound 10 µM
[25] = second compound 3.16 µM, first compound 0.0316 µM
[26] = second compound 3.16 µM, first compound 0.1 µM
[27] = second compound 3.16 µM, first compound 0.316 µM
[28] = second compound 3.16 µM, first compound 1 µM
[29] = second compound 3.16 µM, first compound 3.16 µM
[30] = second compound 3.16 µM, first compound 10 µM
[31] = second compound 10 µM, first compound 0.0316 µM
[32] = second compound 10 µM, first compound 0.1 µM
[33] = second compound 10 µM, first compound 0.316 µM
[34] = second compound 10 µM, first compound 1 µM
[35] = second compound 10 µM, first compound 3.16 µM
[36] = second compound 10 µM, first compound 10 µM
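Further: spheroids exposed to compounds for seven days before readout.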
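Wherever viability, T/C is given: percent of DMSO vehicle control luminescence as 100% viability.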

`CCCS(=O)(=O)Nc1ccc(F)c(C(=O)c2c[nH]c3ncc(-c4ccc(Cl)cc4)cc23)c1F` + CN1CCN(c2cc(C(=O)Nc3cc4cc(-c5cnn(C)c5)ccc4cn3)ccn2)CC1 showed an IC50 (second compound 0.0316 µM) of over 10 µM, an IC50 (second compound 0.1 µM) of 5.27 µM and an IC50 (second compound 0.316 µM) of under 0.0316 µM. For the same molecule, the IC50 (second compound 1 µM) was under 0.0316 µM, the IC50 (second compound 3.16 µM) was under 0.0316 µM and the IC50 (second compound 10 µM) was under 0.0316 µM. It also gave a viability, T/C [1] of 115%, a viability, T/C [2] of 98% and a viability, T/C [3] of 92.6%. For the same molecule, the viability, T/C [4] was 111%, the viability, T/C [5] was 113% and the viability, T/C [6] was 98.8%. It also gave a viability, T/C [7] of 59.5%, a viability, T/C [8] of 63.6% and a viability, T/C [9] of 62.2%. The viability, T/C [10] was 95.5%, the viability, T/C [11] was 57.5% and the viability, T/C [12] was 32.8%. It also gave a viability, T/C [13] of 5.7%, a viability, T/C [14] of 6.53% and a viability, T/C [15] of 5.51%. The viability, T/C [16] was 4.08%, the viability, T/C [17] was 8.45% and the viability, T/C [18] was 5.43%. The viability, T/C [19] was 4.51%, the viability, T/C [20] was 1.83% and the viability, T/C [21] was 3.28%. For the same molecule, the viability, T/C [22] was 1.8%, the viability, T/C [23] was 2.28% and the viability, T/C [24] was 2.25%. For the same molecule, the viability, T/C [25] was 3.73%, the viability, T/C [26] was 4.36% and the viability, T/C [27] was 3.99%. For the same molecule, the viability, T/C [28] was 4.7%, the viability, T/C [29] was 5.81% and the viability, T/C [30] was 4.4%. It also gave a viability, T/C [31] of 4.02%, a viability, T/C [32] of 2.72% and a viability, T/C [33] of 2.7%. It also gave a viability, T/C [34] of 3.39%, a viability, T/C [35] of 3.28% and a viability, T/C [36] of 2.76%.
`COC1C=CCC(C)C(C)S(=O)(=O)NC(=O)c2ccc3c(c2)N(CC2CCC21)CC1(CCCc2cc(Cl)ccc21)CO3` (centres undefined) + CN1CCN(c2cc(C(=O)Nc3cc4cc(-c5cnn(C)c5)ccc4cn3)ccn2)CC1 showed an IC50 (second compound 0.0316 µM) of 5.88 µM, an IC50 (second compound 0.1 µM) of 0.306 µM and an IC50 (second compound 0.316 µM) of under 0.0316 µM. It also gave an IC50 (second compound 1 µM) of under 0.0316 µM, an IC50 (second compound 3.16 µM) of under 0.0316 µM and an IC50 (second compound 10 µM) of under 0.0316 µM. The viability, T/C [1] was 94.5%, the viability, T/C [2] was 89.8% and the viability, T/C [3] was 109%. The viability, T/C [4] was 87.1%, the viability, T/C [5] was 82.4% and the viability, T/C [6] was 23.2%. For the same molecule, the viability, T/C [7] was 74.2%, the viability, T/C [8] was 77.4% and the viability, T/C [9] was 45.6%. It also gave a viability, T/C [10] of 25.9%, a viability, T/C [11] of 14.9% and a viability, T/C [12] of 9.47%. The viability, T/C [13] was 5.64%, the viability, T/C [14] was 6.22% and the viability, T/C [15] was 4.57%. The viability, T/C [16] was 5.41%, the viability, T/C [17] was 4.64% and the viability, T/C [18] was 2.38%. For the same molecule, the viability, T/C [19] was 1.87%, the viability, T/C [20] was 1.41% and the viability, T/C [21] was 1.74%. For the same molecule, the viability, T/C [22] was 2.02%, the viability, T/C [23] was 3.06% and the viability, T/C [24] was 3.77%. It also gave a viability, T/C [25] of 4.46%, a viability, T/C [26] of 3.64% and a viability, T/C [27] of 3.99%. The viability, T/C [28] was 2.73%, the viability, T/C [29] was 2.81% and the viability, T/C [30] was 1.89%. It also gave a viability, T/C [31] of 4.15%, a viability, T/C [32] of 2.18% and a viability, T/C [33] of 2.3%. The viability, T/C [34] was 2.91%, the viability, T/C [35] was 2.23% and the viability, T/C [36] was 1.54%.
